For test [1], the target named is T1, Recombinant STAT6 protein (STAT6 (W123-T658)) (Homo sapiens, UniProt P42226).
T1 construct: Recombinant STAT6 protein (STAT6 (W123-T658))
T1 sequence (P42226 123-658): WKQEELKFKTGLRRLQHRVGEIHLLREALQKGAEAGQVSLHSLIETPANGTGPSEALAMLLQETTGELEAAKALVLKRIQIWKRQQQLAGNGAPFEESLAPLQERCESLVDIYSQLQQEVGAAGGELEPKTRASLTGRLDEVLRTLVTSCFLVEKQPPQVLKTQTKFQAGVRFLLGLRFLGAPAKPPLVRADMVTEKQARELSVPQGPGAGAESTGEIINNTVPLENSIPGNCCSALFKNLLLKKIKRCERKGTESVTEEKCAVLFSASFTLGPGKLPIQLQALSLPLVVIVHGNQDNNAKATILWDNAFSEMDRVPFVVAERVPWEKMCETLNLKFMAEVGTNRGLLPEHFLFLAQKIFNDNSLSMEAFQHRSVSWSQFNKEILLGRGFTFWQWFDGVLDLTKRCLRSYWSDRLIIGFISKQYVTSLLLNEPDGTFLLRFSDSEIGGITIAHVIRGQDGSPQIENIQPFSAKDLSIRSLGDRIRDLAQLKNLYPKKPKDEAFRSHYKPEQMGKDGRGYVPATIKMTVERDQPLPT
The test can be described thus: STAT6 Fluorescence Polarization (FP) Assay. The format is binding. Particulars: probe 5-FAM-Ap[…]-NH2 2 nM, 45-minute incubation. A digest of the protocol:
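Competitive FP binding: recombinant STAT6 (W123-T658) at 250 nM, labeled phosphotyrosine peptide at 2 nM, compounds at 1% DMSO, 45 min at RT before reading. IC50 values were obtained from nonlinear regression of mP versus log concentration.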
A general note: Fluorescence polarisation rises when a labelled molecule tumbles more slowly, as on binding a larger partner.

Test [2] concerns the target T2, Recombinant STAT3 protein (STAT3 (G127-I722)) (Homo sapiens, UniProt P40763).
T2 construct: Recombinant STAT3 protein (STAT3 (G127-I722))
The test can be described thus: STAT3 Fluorescence Polarization (FP) Assay. Format: binding. Particulars: probe 5-FAM-GpYLPQTV-NH2 2 nM, 45-minute incubation. A digest of the protocol: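 Displacement of a fluorescent phosphotyrosine peptide (5-FAM-GpYLPQTV-NH2, 2 nM) from 25 nM recombinant STAT3 G127-I722 was monitored by FP after 45 min at room temperature.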

The mark [3] stands for this setting: STAT6 250 nM, read-out: STAT6 (FP assay IC50).
Setting [4] is: STAT3 25 nM, read-out: STAT3 (FP assay IC50).

SMILES strings stand for the structures. Where two headings read alike, the source gives them in different places.

T2 sequence (P40763 127-722): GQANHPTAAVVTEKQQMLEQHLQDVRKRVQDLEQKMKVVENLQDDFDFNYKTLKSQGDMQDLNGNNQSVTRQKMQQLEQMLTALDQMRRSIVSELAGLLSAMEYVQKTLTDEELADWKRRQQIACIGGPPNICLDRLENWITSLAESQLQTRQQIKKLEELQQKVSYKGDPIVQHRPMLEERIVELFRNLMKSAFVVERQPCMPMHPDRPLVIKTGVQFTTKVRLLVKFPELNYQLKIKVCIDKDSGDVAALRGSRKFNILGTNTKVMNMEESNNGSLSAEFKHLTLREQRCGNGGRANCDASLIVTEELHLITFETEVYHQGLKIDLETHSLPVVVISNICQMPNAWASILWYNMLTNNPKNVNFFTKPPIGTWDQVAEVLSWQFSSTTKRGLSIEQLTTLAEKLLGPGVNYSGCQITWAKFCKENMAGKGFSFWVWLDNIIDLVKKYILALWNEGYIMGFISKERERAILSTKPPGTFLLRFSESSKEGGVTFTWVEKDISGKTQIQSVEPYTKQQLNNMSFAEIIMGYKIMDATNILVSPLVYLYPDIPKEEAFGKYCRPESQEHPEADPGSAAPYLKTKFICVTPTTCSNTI

On to `O=C(N[C@H]1CCC[C@H]2CC[C@@H](C(=O)N3CC(c4ccccn4)C3)N2C1=O)c1cc2cc(C(F)(F)P(=O)(O)O)ccc2s1` [Compound 108, (difluoro(2-(((3S,6S,9aS)-5-oxo-3-(3-(pyridin-2-yl)azetidine-1-carbonyl)octahydro-1H-pyrrolo[1,2-a]azepin-6-yl)carbamoyl)benzo[b]thiophen-5-yl)methyl) phosphonic acid], for which the IC50 in test [1] (setting [3]) is 300 to 3000 nM; in test [2] (setting [4]), under 100 nM.

As to `CN(C(=O)[C@@H]1CC[C@@H]2CCC[C@H](NC(=O)c3cc4cc(C(F)(F)P(=O)(O)O)ccc4s3)C(=O)N21)c1ccccc1` [Compound 111, (Difluoro(2-(((3S,6S,9aS)-3-(methyl(phenyl)carbamoyl)-5-oxooctahydro-1H-pyrrolo[1,2-a]azepin-6-yl)carbamoyl)benzo[b]thiophen-5-yl)methyl)phosphonic acid], the values for the IC50 in test [1] (setting [3]) and in test [2] (setting [4]) were 300 to 3000 nM and 1000 to 10000 nM, respectively.

Turning to `O=C(N[C@H]1CCCC[C@H]2CC[C@@H](C(=O)N3CC(N4CCOCC4)C3)N2C1=O)c1cc2cc(C(F)(F)P(=O)(O)O)ccc2s1` [Compound 113, (difluoro(2-(((3S,6S, 10aS)-3-(3-morpho-linoazetidine-1-carbonyl)-5-oxodecahydropyrrolo[1,2-a]azocin-6-yl)carbamoyl)benzo[b]thiophen-5-yl)methyl)ph osphonic acid], the IC50 was in the range of 3000 to 30000 nM in test [1] (setting [3]) and 100 to 1000 nM in test [2] (setting [4]).

Consider `O=C(N[C@H]1CCC2(CC2)C[C@H]2CC[C@@H](C(=O)N3CC(C(=O)N4CCOCC4)C3)N2C1=O)c1cc2cc(C(F)(F)P(=O)(O)O)ccc2s1` [Compound 114, (difluoro(2-(((3′S,6′S, 10aR)-3′-(3-(morpholine-4-carbonyl)azetidine-1-carbonyl)-5′-oxooctahydro-1′H-spiro [cyclopropane-1,9′-pyrrolo[1,2-a]azocin]-6′-yl)carbamoyl)benzo[b]thiophen-5-yl)methyl) phosphonic acid], for which the values for the IC50 in test [1] (setting [3]) and in test [2] (setting [4]) were 3000 to 30000 nM and under 100 nM, respectively.

In the case of `O=C(N[C@H]1CC2(CC[C@H]3CC[C@@H](C(=O)N4CC(C(=O)N5CCOCC5)C4)N3C1=O)CC2)c1cc2cc(C(F)(F)P(=O)(O)O)ccc2s1` [Compound 115, (difluoro(2-(((3′S,6′S, 10a′S)-3′-(3-(morpholine-4-carbonyl)azetidine-1-carbonyl)-5′-oxooctahydro-5′H-spiro [cyclopropane-1,8′-pyrrolo[1,2-a]azocin]-6′-yl)carbamoyl)benzo[b]thiophen-5-yl)methyl) phosphonic acid], the IC50 in test [1] (setting [3]) was 3000 to 30000 nM; in test [2] (setting [4]), under 100 nM.

With `CC(=O)N1C[C@H](NC(=O)[C@@H]2CC[C@@H]3CCCC[C@H](NC(=O)c4cc5cc(C(F)(F)P(=O)(O)O)ccc5s4)C(=O)N32)[C@@H](O)C1` [Compound 116, ((2-(((3S, 6S,10aS)-3-(((3S,4S)-1-acetyl-4-hydroxypyrrolidin-3-yl)carbamoyl)-5-oxodecahydro-pyrrolo [1,2-a]azocin-6-yl)carbamoyl)benzo[b]thiophen-5-yl)difluoromethyl) phosphonic acid], the figures for the IC50 in test [1] (setting [3]) and in test [2] (setting [4]) were 300 to 3000 nM and 100 to 1000 nM, respectively.

Turning to `O=C(N[C@H]1CCCC[C@H]2CC[C@@H](C(=O)N3CC(c4cccnc4)C3)N2C1=O)c1cc2cc(C(F)(F)P(=O)(O)O)ccc2s1` [Compound 117, (difluoro(2-(((3S,6S,10aS)-5-oxo-3-(3-(pyridin-3-yl)azetidine-1-carbonyl)decahydropyrrolo [1,2-a]azocin-6-yl)carbamoyl)benzo[b]thiophen-5-yl)methyl) phosphonic acid], the IC50 in test [1] (setting [3]) was 3000 to 30000 nM; in test [2] (setting [4]), under 100 nM.

Turning to `O=C(N[C@H]1CCCC[C@H]2CC[C@@H](C(=O)N3CC(C4CCOCC4)C3)N2C1=O)c1cc2cc(C(F)(F)P(=O)(O)O)ccc2s1` [Compound 118A, (difluoro(2-(((3S,6S,10a S)-5-oxo-3-(3-(tetrahydro-2H-pyran-4-yl)azetidine-1-carbonyl)decahydropyrrolo-[1,2a]azocin-6-yl)carbamoyl)benzo[b]thiophen-5-yl)methyl) phosphonic acid], the results for the IC50 in test [1] (setting [3]) and in test [2] (setting [4]) were 3000 to 30000 nM and 100 to 1000 nM, respectively.

Consider `O=C(N[C@H]1CCCC[C@H]2CC[C@@H](C(=O)N3CCN(C(=O)c4cn[nH]c4)CC3)N2C1=O)c1cc2cc(C(F)(F)P(=O)(O)O)ccc2s1` [Compound 118B, ((2-(((3S,6S,10a S)-3-(4-(1H-pyrazole-4-carbonyl)piperazine-1-carbonyl)-5-oxodecahydro-pyrrolo [1,2-a]azocin-6-yl)carbamoyl)benzo[b]thiophen-5-yl)difluoromethyl) phosphonic acid], for which the IC50 lay in the range of 300 to 3000 nM in test [1] (setting [3]) and 100 to 1000 nM in test [2] (setting [4]).

Consider `O=C(N[C@H]1CCC[C@H]2CC[C@@H](C(=O)N3CC(C4CCOCC4)C3)N2C1=O)c1cc2cc(C(F)(F)P(=O)(O)O)ccc2s1` [Compound 119, (difluoro(2-(((3S,6S,9aS)-5-oxo-3-(3-(tetrahydro-2H-pyran-4-yl)azetidine-1-carbonyl)octahydro-1H-pyrrolo[1,2-a]azepin-6-yl)carbamoyl)benzo[b]thiophen-5-yl)methyl) phosphonic acid], for which the IC50 in test [1] (setting [3]) lay in the range of 3000 to 30000 nM; in test [2] (setting [4]), 100 to 1000 nM.

Take `CC(=O)N1C[C@H](NC(=O)[C@@H]2CC[C@@H]3CCC[C@H](NC(=O)c4cc5cc(C(F)(F)P(=O)(O)O)ccc5s4)C(=O)N32)[C@@H](O)C1` [Compound 120, ((2-(((3S,6S,9aS)-3-(((3S,4S)-1-acetyl-4-hydroxypyrrolidin-3-yl)carbamoyl)-5-oxooctahydro-1H-pyrrolo[1,2-a]azepin-6-yl)carbamoyl)benzo[b]thiophen-5-yl)difluoromethyl) phosphonic acid]: the IC50 in test [1] (setting [3]) fell in the range of 300 to 3000 nM; in test [2] (setting [4]), 100 to 1000 nM.

On to `O=C(N[C@H]1CCC[C@H]2CC[C@@H](C(=O)Nc3ccc(-c4ccccc4)cc3)N2C1=O)c1cc2cc(C(F)(F)P(=O)(O)O)ccc2s1` [Compound 121, ((2-(((3S,6S,9aS)-3-([1,1′-biphenyl]-4-ylcarbamoyl)-5-oxooctahydro-1H-pyrrolo[1,2-a]azepin-6-yl)carbamoyl)benzo[b]thiophen-5-yl)difluoromethyl) phosphonic acid], for which the IC50 in test [1] (setting [3]) lay within 300 to 3000 nM; in test [2] (setting [4]), 100 to 1000 nM.

As for `CCCC(=O)NC1(c2ccccn2)CN(C(=O)[C@@H]2CC[C@@H]3CCCC[C@H](NC(=O)c4cc5cc(C(F)(F)P(=O)(O)O)ccc5s4)C(=O)N32)C1` [Compound 122, ((2-(((3S,6S,10aS)-3-(3-butyramido-3-(pyridin-2-yl)azetidine-1-carbonyl)-5-oxodecahydropyrrolo[1,2-a]azocin-6-yl)carbamoyl)benzo[b]thiophen-5-yl)difluoromethyl)phosphonic acid], the results for the IC50 in test [1] (setting [3]) and in test [2] (setting [4]) were 3000 to 30000 nM and under 100 nM, respectively.

As to `O=C(N[C@H]1CCCC[C@H]2CC[C@@H](C(=O)N3CC(NC(=O)C4CC4)(c4ccccn4)C3)N2C1=O)c1cc2cc(C(F)(F)P(=O)(O)O)ccc2s1` [Compound 123, ((2-(((3S,6S, 10aS)-3-(3-(cyclopropane-carboxamido)-3-(pyridin-2-yl)azetidine-1-carbonyl)-5-oxodeca-hydropyrrolo [1,2-a]azocin-6-yl)carbamoyl)benzo[b]thiophen-5-yl)difluoromethyl) phosphonic acid], the IC50 in test [1] (setting [3]) was 3000 to 30000 nM; in test [2] (setting [4]) it was under 100 nM.

Turning to `O=C(CCC(F)(F)F)NC1(c2ccccn2)CN(C(=O)[C@@H]2CC[C@@H]3CCCC[C@H](NC(=O)c4cc5cc(C(F)(F)P(=O)(O)O)ccc5s4)C(=O)N32)C1` [Compound 124, (difluoro(2-(((3S,6S, 10aS)-5-oxo-3-(3-(pyridin-2-yl)-3-(4,4,4-trifluoro-butanamido)azetidine-1-carbonyl)decahydro-pyrrolo [1,2-a]azocin-6-yl)carbamoyl)benzo[b]thiophen-5-yl)methyl) phosphonic acid], the IC50 is 3000 to 30000 nM in test [1] (setting [3]) and under 100 nM in test [2] (setting [4]).

For the compound `O=C(N[C@H]1CCC[C@H]2CC[C@@H](C(=O)N3CCn4cncc4C3)N2C1=O)c1cc2cc(C(F)(F)P(=O)(O)O)ccc2s1` [Compound 203, (difluoro(2-(((3S,6S,9aS)-5-oxo-3-(5,6,7,8-tetrahydroimidazo[1,5-a]pyrazine-7-carbonyl)octahydro-1H-pyrrolo[1,2-a]azepin-6-yl)carbamoyl)benzo[b]thiophen-5-yl)methyl)phosphonic acid], the IC50 in test [1] (STAT6 (W123-T658) 250 nM, read-out: STAT6 (FP assay IC50 class)) fell in the range of 300 to 3000 nM; in test [2] (STAT3 (G127-I722) 25 nM, read-out: STAT3 (FP assay IC50 class)), 100 to 1000 nM.

One may read the IC50 as the midpoint of a concentration-inhibition curve.

(Values after patent US20250215029A1 (Recludix Pharma, Inc., priority 2022, published 2025).)
